Patent US20250074901A1, “NOVEL HETEROARYL COMPOUNDS” (ICAGEN, LLC, priority 2021, published 2025)

Biological target: T1, Kv7.2 (Homo sapiens, UniProt O43526)
T1 construct: expressed in transfected cells
Assay: Activation of Kv7.2 (in vitro assay, concentration response curve)
Format: cell-based
Settings: for Emax: Kv7.2 activation max %; for EC50: activation of Kv7.2
How it was run: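 EC50 is the half-maximal effective concentration, relative to the Emax observed for each compound in this in vitro assay. It was derived from concentration–response curves of the agonistic effect measured over a series of concentrations.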

SMILES	Emax	EC50
O=C(NCc1cc(OCC(F)(F)F)ncn1)N[C@H]1C[C@H](C(F)(F)F)C1 [Example 279, 1-[[6-(2,2,2-trifluoroethoxy)pyrimidin-4-yl]methyl]-3-[(1r,3r)-3-(trifluoromethyl)cyclobutyl]urea]	75%	170 nM
Cc1cccc(NC(=O)NC(CO)c2ccnc(OC(F)F)c2)c1 (stereo not drawn) [Example 280, 1-[1-[2-(difluoromethoxy)pyridin-4-yl]-2-hydroxyethyl]-3-(3-methylphenyl)urea]	67%	250 nM
COCC(Oc1cc(CNC(=O)N[C@H]2C[C@H](C(F)(F)F)C2)ccn1)C(F)(F)F (stereo partly drawn) [Example 281, 1-[[2-(1,1,1-trifluoro-3-methoxypropan-2-yl)oxypyridin-4-yl]methyl]-3-[3-(trifluoromethyl)cyclobutyl]urea]	59%	200 nM
O=C(NCc1cc(OC(F)F)ncn1)N[C@H]1C[C@H](C(F)(F)F)C1 [Example 282, 1-[[6-(difluoromethoxy)pyrimidin-4-yl]methyl]-3-[(1r,3r)-3-(trifluoromethyl)cyclobutyl]urea]	78%	90 nM
O=C(NC(CO)c1ccnc(OCC(F)(F)F)c1)NC12CC(F)(C1)C2 (stereo not drawn) [Example 283, 1-(3-fluoro-1-bicyclo[1.1.1]pentanyl)-3-[2-hydroxy-1-[2-(2,2,2-trifluoroethoxy)pyridin-4-yl]ethyl]urea]	68%	490 nM
O=C(NCc1ccnc(OCC(F)(F)F)c1)NCC1(C(F)(F)F)CC1 [Example 284, 1-[[2-(2,2,2-trifluoroethoxy)pyridin-4-yl]methyl]-3-[[1-(trifluoromethyl)cyclopropyl]methyl]urea]	82%	990 nM
O=C(NCc1ccnc(OCC(F)(F)F)c1)NC(C(F)(F)F)C(F)(F)F [Example 285, 1-(1,1,1,3,3,3-hexafluoropropan-2-yl)-3-[[2-(2,2,2-trifluoroethoxy)pyridin-4-yl]methyl]urea]	87%	380 nM
C[C@@H](O)C(NC(=O)N[C@H]1C[C@H](C(F)(F)F)C1)c1ccnc(OC(F)F)c1 (stereo partly drawn) [Example 286, 1-[(2R)-1-[2-(difluoromethoxy)pyridin-4-yl]-2-hydroxypropyl]-3-[(1r,3r)-3-(trifluoromethyl)cyclobutyl]urea]	66%	550 nM
C[C@H](O)C(NC(=O)N[C@H]1C[C@H](C(F)(F)F)C1)c1ccnc(OC(F)F)c1 (stereo partly drawn) [Example 287, 1-[(2S)-1-[2-(difluoromethoxy)pyridin-4-yl]-2-hydroxypropyl]-3-[(1r,3r)-3-(trifluoromethyl)cyclobutyl]urea]	96%	740 nM
O=C(NCc1ccnc(OC(F)F)c1)N[C@@H]1CC[C@H](OC(F)(F)F)C1 [Example 288, 1-[[2-(difluoromethoxy)pyridin-4-yl]methyl]-3-[(1R,3S)-3-(trifluoromethoxy)cyclopentyl]urea]	68%	250 nM
O=C(NCc1ccnc(OC(F)F)c1)NCC(O)C12CC(F)(C1)C2 (stereo not drawn) [Example 289, 1-[[2-(difluoromethoxy)pyridin-4-yl]methyl]-3-[2-(3-fluoro-1-bicyclo[1.1.1]pentanyl)-2-hydroxyethyl]urea]	40%	980 nM
O=C(NCc1ccnc(OCC(F)(F)F)c1)NCC(O)C12CC(F)(C1)C2 (stereo not drawn) [Example 290, 1-[2-(3-fluoro-1-bicyclo[1.1.1]pentanyl)-2-hydroxyethyl]-3-[[2-(2,2,2-trifluoroethoxy)pyridin-4-yl]methyl]urea]	81%	890 nM
O=C(NCc1ccnc(OC(F)F)c1)NCC(O)C12CC(C1)C2 (stereo not drawn) [Example 291, 1-[2-(1-bicyclo[1.1.1]pentanyl)-2-hydroxyethyl]-3-[[2-(difluoromethoxy)pyridin-4-yl]methyl]urea]	64%	460 nM
O=C(NCc1ccnc(OCC(F)(F)F)c1)NCC(O)C12CC(C1)C2 (stereo not drawn) [Example 292, 1-[2-(1-bicyclo[1.1.1]pentanyl)-2-hydroxyethyl]-3-[[2-(2,2,2-trifluoroethoxy)pyridin-4-yl]methyl]urea]	62%	620 nM
O=C(NCc1ccnc(OCC(F)(F)F)c1)N[C@H]1C[C@H](C(F)F)C1 [Example 293, 1-[(1r,3r)-3-(difluoromethyl)cyclobutyl]-3-[[2-(2,2,2-trifluoroethoxy)pyridin-4-yl]methyl]urea]	93%	610 nM
